In assay [1] the test system is Human betaherpesvirus 5. Put plainly: Compound (up to 100 ug/mL) was tested in vitro for inhibitory activity against HCMV (Human cytomegalovirus); Inactive. The assay is classed as functional, organism-based.
For assay [2], the system named is F2002 cell line. Nature of the assay: Compound was tested in vitro for inhibitory activity against HCMV (Human cytomegalovirus) in Flow 2002 cells. Format: functional, cell-based.
Assay [3] concerns F2002 cell line. Nature of the assay: Compound was tested in vitro for cytotoxic activity against HCMV (Human cytomegalovirus) in Flow 2002 cells. Format: functional.
The test system of assay [4] is WI-38. Put plainly: Compound was tested in vitro for cytotoxic activity against HCMV (Human cytomegalovirus) in WI38 cells. The assay is classed as functional.
For assay [5], the system named is WI-38. Put plainly: Compound was tested in vitro for inhibitory activity against HCMV (Human cytomegalovirus) in WI38 cells. The assay is classed as functional, cell-based.
In assay [6] the test system is Human betaherpesvirus 5. Put plainly: Compound was tested in vitro for cytotoxic activity against HCMV (Human cytomegalovirus). The assay is classed as functional.
In assay [7] the test system is Human betaherpesvirus 5. Nature of the assay: Compound was tested in vitro for inhibitory activity against HCMV (Human cytomegalovirus). The assay is classed as functional, organism-based.
Assay [8] is described as follows: Compound was tested for selectivity index of […]. The assay is classed as functional.

We go through 12 compounds from ChEMBL document CHEMBL1130572, “Synthesis and anti HCMV activity of 3,4-disubstituted tetrahydrofuran derived nucleosides and nucleotides: A tethered series of PME derivatives” (Bioorg Med Chem Lett, 1997).

Values after ≈ are worked out from the molar mass of the structure shown. Active and inactive are the calls of the source. The calls are words filed in the database; no cut-off is given here.

`Nc1ncnc2c1ncn2[C@@H]1COCC1OCP(=O)(O)O` (stereo partly drawn): the result in the assay with Human betaherpesvirus 5 [1] was inactive.
One may read the IC50 as the concentration at which inhibition is half-maximal. A lower IC50 goes with higher potency. As a reminder, the CC50 is the concentration that lowers cell viability or growth by half. A lower CC50 goes with harm at low concentration. Consider `O=c1ccn([C@@H]2COCC2O)c(=O)[nH]1` (stereo partly drawn), for which the IC50 in the assay on F2002 cell line [2] was > 100 µg/mL. Also, the CC50 in the assay on F2002 cell line [3] is > 100 µg/mL.
Take `N.Nc1ccn([C@@H]2COCC2OCP(=O)(O)O)c(=O)n1` (stereo partly drawn): the CC50 with WI-38 [4] was > 100 µg/mL. Moreover, in the assay with WI-38 [5], the concentration for half-maximal inhibition (IC50) was > 50 µg/mL.
On to `O=c1ccn([C@@H]2COCC2OCP(=O)(O)O)c(=O)[nH]1` (stereo partly drawn), for which, in the assay with F2002 cell line [2], the IC50 was > 100 µg/mL. Moreover, the midpoint of cytotoxicity in the assay on F2002 cell line [3], the CC50, lay at 100 µg/mL (≈ 342 µM).
For `O=c1ccn(C2COCC2OCP(=O)(O)O)c(=O)[nH]1` (stereo not drawn) the same measures were > 100 µg/mL and > 100 µg/mL.
For `Nc1ncnc2c1ncn2C1COCC1OCP(=O)(O)O` (stereo not drawn), the result in the assay on Human betaherpesvirus 5 [1] was inactive.
As to `Nc1nc2c(ncn2COC(CO)CO)c(=O)[nH]1` [GANCICLOVIR], in the assay with Human betaherpesvirus 5 [6], the CC50 is > 100 µg/mL. This compound also came in with a half-inhibitory concentration (IC50) in the assay with Human betaherpesvirus 5 [7] of 0.1 µg/mL (≈ 0.392 µM).
In the assay on WI-38 [4], `Nc1ncnc2c1ncn2C1COCC1O` (stereo not drawn) yielded a CC50 of 100 µg/mL (≈ 452 µM). Further, in the assay with WI-38 [5], the IC50 is > 50 µg/mL.
For `Nc1ccn(C2COCC2O)c(=O)n1` (stereo not drawn), the IC50 in the assay on F2002 cell line [2] was > 100 µg/mL. The compound also gave a CC50 in the assay on F2002 cell line [3] of 100 µg/mL (≈ 507 µM).
For `Nc1ccn([C@@H]2COCC2O)c(=O)n1` (stereo partly drawn), the IC50 with F2002 cell line [2] came out at 3 µg/mL (≈ 15.2 µM). The compound also came in with a CC50 in the assay on F2002 cell line [3] of 100 µg/mL (≈ 507 µM). The compound also registered a Selectivity index in assay [8] of 33.
`Nc1ncnc2c1ncn2[C@@H]1COCC1O` (stereo partly drawn): the IC50 with F2002 cell line [2] was > 100 µg/mL. For the same compound, the CC50 in the assay with F2002 cell line [3] was > 100 µg/mL.
As to `N.Nc1ccn(C2COCC2OCP(=O)(O)O)c(=O)n1` (stereo not drawn), the CC50 in the assay on WI-38 [4] was > 100 µg/mL. In addition, the IC50 with WI-38 [5] was > 100 µg/mL.
